The results in this text go back to patent US12037324B2, “Biarylmethyl heterocycles” (Université de Montréal, priority 2016, dated 2024).

One may read the EC50 as the concentration needed to bring the measured effect to its halfway point.

What all share (format): cell-based
In experiment [1] the target is T1, AGTR1 (Homo sapiens, UniProt P30556).
T1 construct: host or cells: Pathunter CHO-K1 AGTR1 β-arrestin cell line (CHO-K1)
T1 sequence (P30556 1-359): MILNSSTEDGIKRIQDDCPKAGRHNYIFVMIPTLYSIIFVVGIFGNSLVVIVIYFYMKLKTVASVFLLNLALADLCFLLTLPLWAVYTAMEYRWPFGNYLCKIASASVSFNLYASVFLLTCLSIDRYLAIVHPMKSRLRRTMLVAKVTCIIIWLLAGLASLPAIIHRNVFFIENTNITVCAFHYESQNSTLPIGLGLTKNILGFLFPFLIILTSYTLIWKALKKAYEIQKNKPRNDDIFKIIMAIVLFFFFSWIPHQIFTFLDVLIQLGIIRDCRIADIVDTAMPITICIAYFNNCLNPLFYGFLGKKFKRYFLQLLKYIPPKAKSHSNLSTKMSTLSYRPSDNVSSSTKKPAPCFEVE
The experiment is described as follows: DiscoveRx β-arrestin2 recruitment assay (enzyme complementation, Pathunter CHO-K1 AGTR1 β-arrestin cell line). To be noted: DiscoveRx β-arrestin2 recruitment; for DiscoveRx β-arrestin2 Ymax (%): maximal response. The method, then: In one aspect of the invention, signaling bias of compounds was assessed by comparing the relative activity of compounds to activate both the β-arrestin and Gq signaling pathways. In order to confirm signaling bias, compounds were studied in two different assay formats. DiscoveRx β-arrestin2 Recruitment and IP1 Assays β-arrestin2 recruitment to activated receptors can be assessed using an enzyme complementation method (Zhao, Jones et al. 2008). […] Cells (5000/well) were plated into 1536 well plates (Cellocoat plates, Greiner Bio One, Monroe, NC) 14-16 hours before each experiment in 20 μl DMEM/F12 medium (Thermo-Fisher Scientific, Carlsbad, CA) containing heat-inactivated 1% fetal bovine serum. Subsequently, the compounds of interest were added at varying concentrations to the wells in a volume of 200 nl and the cells incubated for 90 min at 37° C. The detection reagent (10 μl) was added to each well and the plates incubated at room temperature for 1 hour before measurement of chemiluminescence using an EnVision Multilabel Reader (Perkin-Elmer, Waltham, MA). The data are processed using Toolset for Runmaster QCMulti. Concentration-response curves are fitted and EC50s (agonist mode) and IC50s (antagonist mode) estimated using a 4-parameter logistic equation. Compound activities are reported as a relative percentage to the maximal effect of All in the assays.

Experiment [2] deals with T2, hAT1R (Homo sapiens, UniProt P30556).
T2 sequence (P30556 1-359): T1 sequence (P30556 1-359)
Put plainly: BRET β-arrestin2 biosensor assay, higher receptor expression (hAT1R 5 ng/well), HEK293 cells. To be noted: for EC50: High AT1R Expression.

For experiment [3], the target named is T1, AGTR1. Put plainly: DiscoveRx IP1 accumulation assay (HTRF), agonist mode, Pathunter CHO-K1 AGTR1 β-arrestin cell line. To be noted: for EC50: read-out: IP-1 EC50. The method, then:
In one aspect of the invention, signaling bias of compounds was assessed by comparing the relative activity of compounds to activate both the β-arrestin and Gq signaling pathways. In order to confirm signaling bias, compounds were studied in two different assay formats.
DiscoveRx β-arrestin2 Recruitment and IP1 Assays
Gq activation can be assessed by measuring the accumulation of inositol phosphates (e.g. IP3, IP1) that are liberated following activation of phospholipase C by Gq (Thomsen, Frazer et al. 2005). In the current invention we have utilized the DiscoveRx Pathunter CHO-K1 AGTR1 β-arrestin cell line to also measure IP1 accumulation in response to compounds. IP1 accumulation was measured in both agonist and antagonist modes. In agonist mode, cells are plated as above 14-16 hours before the experiment. The medium is then removed and compounds at varying concentrations added in a final volume of 20 μl. The cells are incubated at 37° C. for 90 min. IP1 accumulation detected using a commercial HTRF assay according to manufacturer's instructions (Cisbio, Bedford, MA). Specifically, 4 μl of D2-conjugate solution (diluted 1:20 in Cisbio HTRF assay buffer) is added to each well, followed by the addition of 4 μl of anti-IP1 cryptate diluted 1:20 in HTRF assay buffer and the plates incubated for 20 min at room temperature. 14 μl from each well is measured using an Envision multi-label reader and data processed using Toolset for Runmaster QCMulti. Concentration-response curves are fitted and EC50s (agonist mode) and IC50s (antagonist mode) estimated using a 4-parameter logistic equation. Compound activities are reported as a relative percentage to the maximal effect of All in the assays.
(TR-FRET usually uses a lanthanide donor and a delayed reading to cut background.)

In the case of `CCc1nc2c(C)cc(C)nc2n1Cc1ccc(-c2cc(N(C)c3ccccc3)ccc2-c2nn[nH]n2)cc1` [Example 94], in experiment [1], a half-maximal effect (EC50) was put at 13.1 nM and the “DiscoveRx β-arrestin2 Ymax (%)” value turned out to be 35.9%. Moreover, in experiment [2], the “BRET β-Arrestin2 High AT1R Expression Ymax (%)” value was found to be 76.8% and the midpoint of the response, the EC50, lay at 20.8 nM. In experiment [3], the “IP-1 Ymax (%)” value was 9.0% and the concentration giving a half-maximal response (EC50) was determined as 32.7 nM.
Turning to `CCCCOC(=O)NS(=O)(=O)c1sc(-c2cccnc2OC)cc1-c1ccc(Cn2c(CC)nc3c(C)cc(C)nc32)cn1` [Example 48, Butyl (3-(5-((2-ethyl-5,7-dimethyl-3H-imidazo[4,5-b]pyridin-3-yl)methyl)pyridin-2-yl)-5-(2-methoxypyridin-3-yl)thiophen-2-yl)sulfonylcarbamate], in experiment [1], the concentration giving a half-maximal response (EC50) was determined as 106 nM and the “DiscoveRx β-arrestin2 Ymax (%)” value is given as 20.6%. Moreover, in experiment [2], the “BRET β-Arrestin2 High AT1R Expression Ymax (%)” value came to 43.8% and the EC50 was 40.6 nM. In experiment [3], the “IP-1 Ymax (%)” value turned out to be 10.0% and the 50% effective concentration (EC50) was found to be 357 nM.
Consider `CCCCOC(=O)NS(=O)(=O)c1sc(-c2ccccc2C(F)(F)F)cc1-c1ccc(Cn2c(CC)nc3c(C)cc(C)nc32)cn1` [Example 46, Butyl (3-(5-((2-ethyl-5,7-dimethyl-3H-imidazo[4,5-b]pyridin-3-yl)methyl)pyridin-2-yl)-5-(2-(trifluoromethyl)phenyl)thiophen-2-yl)sulfonylcarbamate], for which, in experiment [1], the EC50 is 32 nM and the “DiscoveRx β-arrestin2 Ymax (%)” value turned out to be 45.1%. Besides, in experiment [2], the “BRET β-Arrestin2 High AT1R Expression Ymax (%)” value is 84.8% and the EC50 came out at 13.1 nM. In addition, in experiment [3], the “IP-1 Ymax (%)” value is on record as 15.4% and the EC50 worked out at 355 nM.
`CCc1nc2c(C)cc(C)nc2n1Cc1ccc(-c2cc(Oc3cccc(OC(F)(F)F)c3)ccc2-c2nnn[nH]2)cc1` [Example 207]: in experiment [1], the EC50 worked out at 11.5 nM and the “DiscoveRx β-arrestin2 Ymax (%)” value was found to be 23.1%. In experiment [2], the “BRET β-Arrestin2 High AT1R Expression Ymax (%)” value was 74.8% and the EC50 came out at 22 nM. In experiment [3], the “IP-1 Ymax (%)” value is reported as 2.5% and the EC50 worked out at 39.1 nM.
`CCc1nc2c(C)cc(C)nc2n1Cc1ccc(-c2cc(Oc3ccc(C)cn3)ccc2-c2nn[nH]n2)cc1` [Example 248]: in experiment [1], a half-maximal effect (EC50) was put at 26.5 nM and the “DiscoveRx β-arrestin2 Ymax (%)” value worked out at 18.2%. Also, in experiment [2], the “BRET β-Arrestin2 High AT1R Expression Ymax (%)” value is given as 79.5% and the EC50 was determined as 14 nM. In experiment [3], the “IP-1 Ymax (%)” value is on record as 6.8% and the EC50 turned out to be 81.7 nM.
Turning to `CCCCC1=NC2(CCCC2)C(=O)N1Cc1ccc(-c2cc(-c3cccs3)ccc2-c2nn[nH]n2)cc1` [Example 131], the EC50 in experiment [1] was 13.7 nM; in experiment [2] it was 49 nM; in experiment [3], > 100000 nM. Moreover, the “DiscoveRx β-arrestin2 Ymax (%)” value in experiment [1] is listed as 19.1%. Also, the “BRET β-Arrestin2 High AT1R Expression Ymax (%)” value in experiment [2] was found to be 42.5%.
As for `CCc1nc2c(C)cc(C)nc2n1Cc1ccc(-c2cc(Nc3ccccc3)ccc2-c2nn[nH]n2)cc1` [Example 93], in experiment [1], the EC50 amounted to 7.9 nM and the “DiscoveRx β-arrestin2 Ymax (%)” value turned out to be 32.6%. In experiment [2], the “BRET β-Arrestin2 High AT1R Expression Ymax (%)” value was determined as 82.8% and a half-maximal response (EC50) required 7.5 nM. Besides, in experiment [3], the “IP-1 Ymax (%)” value turned out to be 5.4% and the concentration giving a half-maximal response (EC50) came to 21.2 nM.
Regarding `CCc1nc2c(C)cc(C)nc2n1Cc1ccc(-c2cc(-c3cccs3)ccc2-c2nn[nH]n2)cc1` [Example 12], in experiment [1], a half-maximal effect (EC50) was put at 6.3 nM and the “DiscoveRx β-arrestin2 Ymax (%)” value was 21.4%. In experiment [2], the “BRET β-Arrestin2 High AT1R Expression Ymax (%)” value came out at 83.6% and the EC50 is 9 nM. The EC50 in experiment [3] was > 1000 nM.
For `CCc1nc2c(C)cc(C)nc2n1Cc1ccc(-c2cc(C3=NCCC3)ccc2-c2nn[nH]n2)cc1` [Example 77, 3-((5′-(3,4-dihydro-2H-pyrrol-5-yl)-2′-(2H-tetrazol-5-yl)-[1,1′-biphenyl]-4-yl)methyl)-2-ethyl-5,7-dimethyl-3H-imidazo[4,5-b]pyridine], in experiment [1], the 50% effective concentration (EC50) stood at 60.2 nM and the “DiscoveRx β-arrestin2 Ymax (%)” value was found to be 21.1%. Further, in experiment [2], the “BRET β-Arrestin2 High AT1R Expression Ymax (%)” value amounted to 77.1% and the 50% effective concentration (EC50) came out at 90.6 nM. Besides, in experiment [3], the “IP-1 Ymax (%)” value was determined as 7.1% and the EC50 turned out to be 204 nM.
Take `CCc1nc2c(C)cc(C)nc2n1Cc1ccc(-c2cc(N3CC[C@H](C)C3)ccc2-c2nn[nH]n2)cc1` [Example 89]: in experiment [1], a half-maximal effect (EC50) was put at 49.4 nM and the “DiscoveRx β-arrestin2 Ymax (%)” value came to 22.5%. Further, in experiment [3], the EC50 was > 100000 nM.
As for `CCc1nc2c(C)cc(C)nc2n1Cc1ccc(-c2cc(-c3ccccc3)ccc2C(=O)O)nc1` [Example 201, 3-(5-((2-ethyl-5,7-dimethyl-3H-imidazo[4,5-b]pyridin-3-yl)methyl)pyridin-2-yl)biphenyl-4-carboxylic acid], in experiment [1], the EC50 stood at 348 nM and the “DiscoveRx β-arrestin2 Ymax (%)” value came out at 7.0%. In addition, in experiment [3], the “IP-1 Ymax (%)” value was 5.6% and the concentration for a half-maximal effect (EC50) was 454 nM.
For `CCc1nc2c(C)cc(C)nc2n1Cc1ccc(-c2cc(C3CCCCN3)ccc2-c2nn[nH]n2)cc1` (single isomer, unassigned) [Example 76, 2-ethyl-5,7-dimethyl-3-((5′-(piperidin-2-yl)-2′-(2H-tetrazol-5-yl)-[1,1′-biphenyl]-4-yl)methyl)-3H-imidazo[4,5-b]pyridine], the concentration for a half-maximal effect (EC50) in experiment [1] was 840 nM; in experiment [3] it was > 100000 nM. Besides, the “DiscoveRx β-arrestin2 Ymax (%)” value in experiment [1] is 13.2%.
On to `CCc1nc2c(C)cc(C)nc2n1Cc1ccc(-c2cc(N3CCCC3=O)ccc2-c2nn[nH]n2)cc1` [Example 28, 1-(4′-((2-ethyl-5,7-dimethyl-3H-imidazo[4,5-b]pyridin-3-yl)methyl)-6-(2H-tetrazol-5-yl)-[1,1′-biphenyl]-3-yl)pyrrolidin-2-one], for which, in experiment [1], the EC50 amounted to 322 nM and the “DiscoveRx β-arrestin2 Ymax (%)” value stood at 11.9%. Also, in experiment [3], the “IP-1 Ymax (%)” value is 2.3% and the EC50 was determined as 3780 nM.
The matching figures for `CCc1nc2c(C)cc(C)nc2n1Cc1ccc(-c2cc(-c3ccsc3)ccc2-c2nn[nH]n2)cc1` [Example 55]: 9.3 nM, 44.9%, 6.8% and 26.8 nM.
The matching figures for `CCc1nc2c(C)cc(C)nc2n1Cc1ccc(-c2cc(N3CCCCCC3)ccc2-c2nn[nH]n2)cc1` [Example 95, 3-((5′-(azepan-1-yl)-2′-(2H-tetrazol-5-yl)-[1,1′-biphenyl]-4-yl)methyl)-2-ethyl-5,7-dimethyl-3H-imidazo[4,5-b]pyridine]: 137 nM, 21.0%, 6.3% and 249 nM.
On to `CCc1nc2c(C)cc(C)nc2n1Cc1ccc(-c2cc(-c3ccc(N(C)C)cc3)ccc2-c2nn[nH]n2)cc1` [Example 15], for which, in experiment [1], the EC50 worked out at 22.6 nM and the “DiscoveRx β-arrestin2 Ymax (%)” value is on record as 14.9%. Moreover, in experiment [3], the “IP-1 Ymax (%)” value is 2.4% and the half-maximal effective concentration (EC50) was 21.7 nM.
As to `CCCCC1=NC2(CCCC2)C(=O)N1Cc1ccc(-c2cc(N3CCC(C)(C)CC3)ccc2-c2nn[nH]n2)cc1` [Example 101], the 50% effective concentration (EC50) in experiment [1] was 30 nM; in experiment [3], > 100000 nM. Moreover, the “DiscoveRx β-arrestin2 Ymax (%)” value in experiment [1] is reported as 21.4%.
Take `CCc1nc2c(C)cc(C)nc2n1Cc1ccc(-c2cc(-c3ccc(C)cc3)ccc2-c2nn[nH]n2)cc1` [Example 18]: in experiment [1], the midpoint of the response, the EC50, lay at 140 nM and the “DiscoveRx β-arrestin2 Ymax (%)” value came out at 54.2%. In experiment [3], the “IP-1 Ymax (%)” value is on record as 15.4% and the EC50 came to 499 nM.
